Experimental data taken from ChEMBL document CHEMBL1955725, “Structure-guided lead optimization of triazolopyrimidine-ring substituents identifies potent Plasmodium falciparum dihydroorotate dehydrogenase inhibitors with clinical candidate potential” (J Med Chem, 2011).
≈ marks a conversion by molar mass, not a printed value.

Legend:
[1] = Oral bioavailability in Sprague-Dawley rat at 21.2 mg/kg; assay type: ADME, organism-based; details: in vivo
[2] = Plasma protein binding in Sprague-Dawley rat at 2 to 21.2 mg/kg, po; assay type: ADME, organism-based; set-up: dose 2-21.2 mg/kg, route oral; details: read-out: PPB (converted)
Plasmodium falciparum [3] = assay: Antimalarial activity against Plasmodium falciparum 3D7 0087/N9 infected in human RBC engrafted NOD-SCID IL-2Rgamma-null mouse assessed as reduction in parasitemia administered orally 3 days post infection qd for 4 days measured 24 hrs after final dose by FACS analysis; assay type: functional; details: 3D7 0087/N9, po
Mus musculus [4] = assay: AUC (0 to 10 hrs) in human RBC engrafted NOD-SCID IL-2Rgamma-null mouse infected with Plasmodium falciparum 3D7 0087/N9 at 5.7 mg/kg, po; assay type: ADME, organism-based, Plasma; set-up: time < 10 hr, dose 5.7 mg/kg, route oral; details: in vivo
[5] = Cmax in human RBC engrafted NOD-SCID IL-2Rgamma-null mouse at 5.7 mg/kg, po; assay type: ADME, organism-based; set-up: dose 5.7 mg/kg, route oral; details: in vivo
[6] = Cmax in human RBC engrafted NOD-SCID IL-2Rgamma-null mouse infected with Plasmodium falciparum 3D7 0087/N9 at 5.7 mg/kg, po; assay type: ADME, organism-based; set-up: dose 5.7 mg/kg, route oral; details: in vivo
Plasma = assay: Plasma protein binding in human by chromatographic method; assay type: ADME, cell-free
Liver = assay: Intrinsic clearance in mouse liver microsomes; assay type: ADME, Microsome
Plasmodium falciparum [7] = assay: Antimalarial activity against drug-sensitive Plasmodium falciparum D6 by [3H]hypoxanthine incorporation assay in presence of human serum; assay type: functional, organism-based
Plasmodium falciparum [8] = assay: Antimalarial activity against chloroquine and pyrimethamine-resistant Plasmodium falciparum K1 by [3H]hypoxanthine incorporation assay in presence of human serum; assay type: functional, organism-based
Plasmodium falciparum [9] = assay: Antimalarial activity against drug-sensitive Plasmodium falciparum HB3 by [3H]hypoxanthine incorporation assay in presence of human serum; assay type: functional, organism-based
Plasmodium falciparum [10] = assay: Antimalarial activity against atovoquone-resistant Plasmodium falciparum TM90C2B by [3H]hypoxanthine incorporation assay in presence of human serum; assay type: functional, organism-based
Plasmodium falciparum [11] = assay: Antimalarial activity against […] Plasmodium falciparum TM90C2A by [3H]hypoxanthine incorporation assay in presence of human serum; assay type: functional, organism-based
L1210 = assay: Cytotoxicity against mouse L1210 cells; assay type: cell-based
[12] = Terminal elimination half life in Swiss outbred mouse at 0.4 mg/kg, po; assay type: ADME, organism-based; set-up: dose 0.4 mg/kg, route oral; details: in vivo, read-out: beta t1/2 (converted)
[13] = Terminal elimination half life in Swiss outbred mouse at 2 mg/kg, po; assay type: ADME, organism-based; set-up: dose 2 mg/kg, route oral; details: in vivo, read-out: beta t1/2 (converted)
[14] = Terminal elimination half life in Swiss outbred mouse at 10 mg/kg, po; assay type: ADME, organism-based; set-up: dose 10 mg/kg, route oral; details: in vivo, read-out: beta t1/2 (converted)
[15] = Cmax in Swiss outbred mouse at 0.4 mg/kg, po; assay type: ADME, organism-based; set-up: dose 0.4 mg/kg, route oral; details: in vivo
[16] = Cmax in Swiss outbred mouse at 2 mg/kg, po; assay type: ADME, organism-based; set-up: dose 2 mg/kg, route oral; details: in vivo
[17] = Cmax in Swiss outbred mouse at 10 mg/kg, po; assay type: ADME, organism-based; set-up: dose 10 mg/kg, route oral; details: in vivo
[18] = Cmax in Swiss outbred mouse at 50 mg/kg, po; assay type: ADME, organism-based; set-up: dose 50 mg/kg, route oral; details: in vivo
[19] = AUC (0 to infinity) in Swiss outbred mouse plasma at 0.4 mg/kg, po; assay type: ADME, organism-based; set-up: time infinity, dose 0.4 mg/kg, route oral
[20] = AUC (0 to infinity) in Swiss outbred mouse plasma at 2 mg/kg, po; assay type: ADME, organism-based; set-up: time infinity, dose 2 mg/kg, route oral
[21] = AUC (0 to infinity) in Swiss outbred mouse plasma at 10 mg/kg, po; assay type: ADME, organism-based; set-up: time infinity, dose 10 mg/kg, route oral
Mus musculus [22] = assay: Time plasma concentration remained above 1 uM in Swiss outbred mouse plasma at 0.4 mg/kg, po; assay type: ADME, organism-based; set-up: dose 0.4 mg/kg, route oral; details: in vivo
Mus musculus [23] = assay: Time plasma concentration remained above 1 uM in Swiss outbred mouse plasma at 2 mg/kg, po; assay type: ADME, organism-based; set-up: dose 2 mg/kg, route oral; details: in vivo
Mus musculus [24] = assay: Time plasma concentration remained above 1 uM in Swiss outbred mouse plasma at 10 mg/kg, po; assay type: ADME, organism-based; set-up: dose 10 mg/kg, route oral; details: in vivo
Mus musculus [25] = assay: Time plasma concentration remained above 1 uM in Swiss outbred mouse plasma at 50 mg/kg, po; assay type: ADME, organism-based; set-up: dose 50 mg/kg, route oral; details: in vivo
[26] = Clearance in Sprague-Dawley rat at 1 mg/kg, iv; assay type: ADME, organism-based; set-up: dose 1 mg/kg, route intravenous; details: in vivo
[27] = Terminal elimination half life in Sprague-Dawley rat at 1 mg/kg, iv; assay type: ADME, organism-based; set-up: dose 1 mg/kg, route intravenous; details: in vivo, read-out: beta t1/2 (converted)
[28] = Terminal elimination half life in Sprague-Dawley rat at 4.5 mg/kg, iv; assay type: ADME, organism-based; set-up: dose 4.5 mg/kg, route intravenous; details: in vivo, read-out: beta t1/2 (converted)
[29] = Volume of distribution in Sprague-Dawley rat at 1 mg/kg, iv; assay type: ADME, organism-based; set-up: dose 1 mg/kg, route intravenous; details: in vivo
[30] = Volume of distribution in Sprague-Dawley rat at 4.5 mg/kg, iv; assay type: ADME, organism-based; set-up: dose 4.5 mg/kg, route intravenous; details: in vivo
[31] = Terminal elimination half life in Sprague-Dawley rat at 2 mg/kg, po; assay type: ADME, organism-based; set-up: dose 2 mg/kg, route oral; details: in vivo, read-out: beta t1/2 (converted)
[32] = Terminal elimination half life in Sprague-Dawley rat at 21.2 mg/kg, po; assay type: ADME, organism-based; set-up: dose 21.2 mg/kg, route oral; details: in vivo, read-out: beta t1/2 (converted)
[33] = Oral bioavailability in Sprague-Dawley rat at 2 mg/kg; assay type: ADME, organism-based; details: in vivo
Plasmodium falciparum [34] = assay: Antimalarial activity against Plasmodium falciparum 3D7 by [3H]hypoxanthine incorporation assay in presence of albumax; assay type: functional, organism-based
[35] = Aqueous solubility of the compound at pH 6.5; assay type: physicochemical
[36] = target: T1, Dihydroorotate dehydrogenase (Plasmodium falciparum, UniProt Q54A96)
T1 sequence (Q54A96 whole entry): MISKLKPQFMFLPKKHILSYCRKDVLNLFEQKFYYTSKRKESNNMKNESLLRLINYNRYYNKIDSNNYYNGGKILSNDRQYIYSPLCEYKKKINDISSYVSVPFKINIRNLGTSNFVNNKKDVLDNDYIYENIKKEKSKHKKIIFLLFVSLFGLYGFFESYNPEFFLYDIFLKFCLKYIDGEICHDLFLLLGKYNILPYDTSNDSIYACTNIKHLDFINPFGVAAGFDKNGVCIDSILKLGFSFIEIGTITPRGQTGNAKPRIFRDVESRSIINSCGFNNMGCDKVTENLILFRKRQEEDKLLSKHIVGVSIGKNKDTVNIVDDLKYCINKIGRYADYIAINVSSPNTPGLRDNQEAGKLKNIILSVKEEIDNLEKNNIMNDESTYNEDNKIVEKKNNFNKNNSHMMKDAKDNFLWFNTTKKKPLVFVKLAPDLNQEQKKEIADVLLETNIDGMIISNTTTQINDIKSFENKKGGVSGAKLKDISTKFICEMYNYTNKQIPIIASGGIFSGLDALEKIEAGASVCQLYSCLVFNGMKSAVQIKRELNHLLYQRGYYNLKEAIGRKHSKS
Description: Inhibition of Plasmodium falciparum C-terminal hexa-His tagged DHODH expressed in Escherichia coli by DCIP reduction assay

[37] = target: Dihydroorotate dehydrogenase (quinone), mitochondrial (Homo sapiens, UniProt Q02127)
Description: Inhibition of human C-terminal hexa-His tagged DHODH expressed in Escherichia coli by DCIP reduction assay

in vivo [38] = details: NOD-SCID IL-2Rgamma-null, mouse, po, 5.7 mg/kg
in vivo [39] = details: NOD-SCID IL-2Rgamma-null, mouse, po, 5.7 mg/kg; remark: listed apart in the source
in vivo [40] = details: Swiss outbred, mouse, po, 2 mg/kg
in vivo [41] = details: Swiss outbred, mouse, po, 10 mg/kg
in vivo [42] = details: Swiss outbred, mouse, po, 50 mg/kg
in vivo [43] = details: Sprague-Dawley, rat, po, 2 mg/kg
in vivo [44] = details: Sprague-Dawley, rat, po, 21.2 mg/kg

Sequence of Dihydroorotate dehydrogenase (quinone), mitochondrial (Q02127 whole entry): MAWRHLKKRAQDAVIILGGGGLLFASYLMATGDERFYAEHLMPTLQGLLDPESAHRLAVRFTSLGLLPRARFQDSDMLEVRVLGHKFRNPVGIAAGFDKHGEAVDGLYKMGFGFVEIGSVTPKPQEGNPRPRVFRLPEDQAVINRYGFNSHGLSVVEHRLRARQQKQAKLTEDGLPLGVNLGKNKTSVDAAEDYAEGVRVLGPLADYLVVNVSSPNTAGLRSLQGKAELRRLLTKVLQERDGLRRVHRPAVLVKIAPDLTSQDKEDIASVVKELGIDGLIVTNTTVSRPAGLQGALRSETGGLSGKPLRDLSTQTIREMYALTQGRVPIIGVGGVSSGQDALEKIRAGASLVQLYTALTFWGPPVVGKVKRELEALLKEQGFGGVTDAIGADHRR

SMILES: Cc1cc(Nc2ccc(C(F)(F)F)cc2)n2nc(C(C)(F)F)nc2n1
- bioavailability [1]: > 100%
- fraction unbound [2]: 0.058
- ED50 (Plasmodium falciparum [3]): 9.6 mg/kg
- ED90 (Plasmodium falciparum [3]): 26 mg/kg
- AUC (Mus musculus [4]): 2740 µM·min
- Cmax [5]: 6.3 µM
- Cmax [6]: 6.3 µM
- PPB (Plasma): 90.4%
- Intrinsic clearance (Liver): 10.1 µL/min/mg
- EC50 (Plasmodium falciparum [7]): 12 nM
- EC50 (Plasmodium falciparum [8]): 16 nM
- EC50 (Plasmodium falciparum [9]): 7.9 nM
- EC50 (Plasmodium falciparum [10]): 4.6 nM
- EC50 (Plasmodium falciparum [11]): 7.9 nM
- EC50 (L1210): > 50000 nM
- half-life [12]: 2.1 h
- half-life [13]: 1.9 h
- half-life [14]: 1.6 h
- Cmax [15]: 0.2 µM
- Cmax [16]: 1.85 µM
- Cmax [17]: 9.86 µM
- Cmax [18]: 57 µM
- AUC(0-inf) [19]: 0.667 µM·h
- AUC(0-inf) [20]: 9.48 µM·h
- AUC(0-inf) [21]: 70.1 µM·h
- Time (Mus musculus [22]): 0 h
- Time (Mus musculus [23]): 6 h
- Time (Mus musculus [24]): 14 h
- Time (Mus musculus [25]): 14 h
- clearance [26]: 23.2 mL/min/kg
- half-life [27]: 6.1 h
- half-life [28]: 3.8 h
- Vd [29]: 3.3 L/kg
- Vd [30]: 2.9 L/kg
- half-life [31]: 6 h
- half-life [32]: 17 h
- bioavailability [33]: 97%
- EC50 (Plasmodium falciparum [34]): 6.2 nM
- solubility [35]: 70 µM (≈ 25 µg/mL)
- IC50 [36]: 38 nM
- IC50 [37]: > 100000 nM
- Tmax (in vivo [38]): 2.7 h
- Tmax (in vivo [39]): 1.7 h
- Tmax (in vivo [40]): 1 h
- Tmax (in vivo [41]): 4 h
- Tmax (in vivo [42]): 2 h
- Tmax (in vivo [43]): 1 h
- Tmax (in vivo [44]): 3.25 h
